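Growth conditions: 96-well plates. Treatment: test compound, 48 hours, 5 concentrations. Analysis: linear interpolation between bracketing concentrations; unreached endpoints set to highest concentration. TGI is the concentration that stops growth completely.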
Key:
Test in all cases: DTP human tumour cell line panel, 48 h
DMS 273 small cell lung = test system: DMS 273 small cell lung
HL-60(TB) leukemia = test system: HL-60(TB) leukemia
LOX IMVI melanoma = test system: LOX IMVI melanoma
DLD-1 colon = test system: DLD-1 colon
SK-MEL-28 melanoma = test system: SK-MEL-28 melanoma
UO-31 renal = test system: UO-31 renal
SK-MEL-5 melanoma = test system: SK-MEL-5 melanoma
HCC-2998 colon = test system: HCC-2998 colon
SF-295 CNS = test system: SF-295 CNS
MALME-3M melanoma = test system: MALME-3M melanoma
TK-10 renal = test system: TK-10 renal
HOP-62 NSCLC = test system: HOP-62 NSCLC
UACC-62 melanoma = test system: UACC-62 melanoma
SNB-19 CNS = test system: SNB-19 CNS
SNB-78 CNS = test system: SNB-78 CNS
CCRF-CEM leukemia = test system: CCRF-CEM leukemia
UACC-257 melanoma = test system: UACC-257 melanoma
SK-MEL-2 melanoma = test system: SK-MEL-2 melanoma
IGROV1 ovarian = test system: IGROV1 ovarian
A549 NSCLC = test system: A549 NSCLC
LXFL 529 NSCLC = test system: LXFL 529 NSCLC
RPMI-8226 leukemia = test system: RPMI-8226 leukemia
SK-OV-3 ovarian = test system: SK-OV-3 ovarian
HOP-92 NSCLC = test system: HOP-92 NSCLC
M19-MEL melanoma = test system: M19-MEL melanoma
HT29 colon = test system: HT29 colon
SNB-75 CNS = test system: SNB-75 CNS
786-0 renal = test system: 786-0 renal
EKVX NSCLC = test system: EKVX NSCLC
OVCAR-4 ovarian = test system: OVCAR-4 ovarian
MOLT-4 leukemia = test system: MOLT-4 leukemia
NCI-H23 lung = test system: NCI-H23 lung
SF-268 CNS = test system: SF-268 CNS
KM12 colon = test system: KM12 colon
M14 melanoma = test system: M14 melanoma
DMS 114 small cell lung = test system: DMS 114 small cell lung
NCI-H522 lung = test system: NCI-H522 lung
OVCAR-5 ovarian = test system: OVCAR-5 ovarian
HCT-116 colon = test system: HCT-116 colon
NCI-H226 lung = test system: NCI-H226 lung
XF 498 CNS = test system: XF 498 CNS
SF-539 CNS = test system: SF-539 CNS
COLO 205 colon = test system: COLO 205 colon
SR leukemia = test system: SR leukemia
NCI-H460 lung = test system: NCI-H460 lung
K-562 leukemia = test system: K-562 leukemia
U251 CNS = test system: U251 CNS
ACHN renal = test system: ACHN renal
CAKI-1 renal = test system: CAKI-1 renal
SW-620 colon = test system: SW-620 colon
HCT-15 colon = test system: HCT-15 colon
OVCAR-3 ovarian = test system: OVCAR-3 ovarian
OVCAR-8 ovarian = test system: OVCAR-8 ovarian
SN12C renal = test system: SN12C renal
RXF 393 renal = test system: RXF 393 renal
KM20L2 colon = test system: KM20L2 colon
HOP-18 NSCLC = test system: HOP-18 NSCLC
A498 renal = test system: A498 renal

Measured: TGI

O=C(Cl)c1cc([N+](=O)[O-])cc([N+](=O)[O-])c1
not listed: OVCAR-3 ovarian | OVCAR-8 ovarian | SN12C renal | RXF 393 renal | KM20L2 colon | HOP-18 NSCLC | A498 renal
> 100 µM: all other assays above

S=C(N/N=C/c1ccccc1)NC1CC(c2ccccc2)Oc2ccccc21 (configuration not stated)
28.7 µM: OVCAR-3 ovarian
87.7 µM: SF-295 CNS
71.3 µM: OVCAR-4 ovarian
65.8 µM: SK-MEL-5 melanoma
31.3 µM: SNB-75 CNS
96.1 µM: SNB-78 CNS
10.2 µM: HOP-92 NSCLC
not listed: HL-60(TB) leukemia | TK-10 renal | HOP-62 NSCLC | CCRF-CEM leukemia | UACC-257 melanoma | RPMI-8226 leukemia | MOLT-4 leukemia | ACHN renal | HCT-15 colon | RXF 393 renal | KM20L2 colon | HOP-18 NSCLC | A498 renal
> 100 µM: all other assays above

O=c1[nH]c2cccccc-2c1-c1nc2ccccc2[nH]1
88 µM: SNB-19 CNS
30.2 µM: SNB-75 CNS
50.6 µM: MALME-3M melanoma
94.8 µM: HOP-62 NSCLC
45.6 µM: RXF 393 renal
51.6 µM: ACHN renal
51.2 µM: SK-OV-3 ovarian
41 µM: 786-0 renal
45.3 µM: SF-268 CNS
47.6 µM: SK-MEL-5 melanoma
93.6 µM: HOP-92 NSCLC
44.9 µM: UACC-62 melanoma
42.3 µM: NCI-H522 lung | XF 498 CNS
68 µM: U251 CNS
54.3 µM: SF-539 CNS
86.6 µM: UO-31 renal
51.9 µM: OVCAR-4 ovarian
35.6 µM: NCI-H226 lung
96.7 µM: OVCAR-8 ovarian
70.5 µM: SK-MEL-28 melanoma
70.6 µM: DMS 273 small cell lung
77.1 µM: SK-MEL-2 melanoma
not listed: MOLT-4 leukemia | NCI-H460 lung | OVCAR-3 ovarian | HOP-18 NSCLC | A498 renal
> 100 µM: all other assays above

O=S(O)CCCSSCCCCSSCCCS(=O)O
not listed: HL-60(TB) leukemia | RPMI-8226 leukemia | HOP-92 NSCLC | NCI-H226 lung | SR leukemia
> 100 µM: all other assays above

— PubChem BioAssay (NCI)
